Patent US12371454B2, “Cyclic peptide compound having Kras inhibitory action” (priority 2019, dated 2025)
Starred links: 1 amine or outer side, 2 acyl side, 3 side chain; linkers in the order of their positions; H or OH if unused. Positions of bridges follow the written chain, without caps; N, C: chain ends. Non-standard residues stand in square brackets, D forms with d. Residues, ends and D or L forms follow the SMILES beside them. *: point of attachment. hPhe(3-Cl-4-CF3) = N[C@@H](CCc1ccc(C(F)(F)F)c(Cl)c1)C(=O)O; hPhe(3-F,4-CF3) = N[C@@H](CCc1ccc(C(F)(F)F)c(F)c1)C(=O)O; hPhe(4-CF3) = N[C@@H](CCc1ccc(C(F)(F)F)cc1)C(=O)O; NEtPhe(4-Cl) = CCN[C@@H](Cc1ccc(Cl)cc1)C(=O)O; NMePhe(4-Cl) = CN[C@@H](Cc1ccc(Cl)cc1)C(=O)O; NMePhe(4-Me) = CN[C@@H](Cc1ccc(C)cc1)C(=O)O; NMePhe(2-Cl) = CN[C@@H](Cc1ccccc1Cl)C(=O)O; NMedβ3hAla = C[C@H](CC(=O)[*:2])N(C)[*:1]; NMeGly(cPent) = CN[C@H](C(=O)O)C1CCCC1; Phe(3-I) = N[C@@H](Cc1cccc(I)c1)C(=O)O; Pro(4,4-F2) = O=C(O)[C@@H]1CC(F)(F)CN1; NMehPhe = CN[C@@H](CCc1ccccc1)C(=O)O; NMe3Pal = CN[C@@H](Cc1cccnc1)C(=O)O; NMeCha = CN[C@@H](CC1CCCCC1)C(=O)O; NMeGly(cPr) = CN[C@H](C(=O)O)C1CC1; NMeChg = CN[C@H](C(=O)O)C1CCCCC1; NMeF = CN[C@@H](Cc1ccccc1)C(=O)O; NMeI = CC[C@H](C)[C@H](NC)C(=O)O; NMeβAla = CN(CCC(=O)[*:2])[*:1]; NMeD = CN[C@@H](CC(=O)O)C(=O)O; CH2CONHtBu = CC(C)(C)NC(=O)C*; NMeL = CN[C@@H](CC(C)C)C(=O)O; NMeV = CN[C@H](C(=O)O)C(C)C; Trifluoroethyl = FC(F)(F)C*; d(β3hA) = C[C@@H](N)CC(=O)O; NMeS = CN[C@@H](CO)C(=O)O; NMeA = CN[C@@H](C)C(=O)O; NMeAib = CNC(C)(C)C(=O)O; Nle = CCCC[C@H](N)C(=O)O; Piperidide = C1CCN(*)CC1; Pyrrolidide = C1CCN(*)C1; dNMeA = CN[C@H](C)C(=O)O; Ac5c = NC1(C(=O)O)CCCC1; Aze = O=C(O)[C@@H]1CCN1; Ac4c = NC1(C(=O)O)CCC1; Sar = CNCC(=O)O

Target: T1, Kras and SOS1 (biotin-tagged human Kras loaded with GDP, His-tagged human SOS1) (Homo sapiens, UniProt P01116, G12D)
T1 construct: made in house; host or cells: E. coli (stated for Kras only)
T1 sequence (P01116 1-188 isoform P01116-2 G12D): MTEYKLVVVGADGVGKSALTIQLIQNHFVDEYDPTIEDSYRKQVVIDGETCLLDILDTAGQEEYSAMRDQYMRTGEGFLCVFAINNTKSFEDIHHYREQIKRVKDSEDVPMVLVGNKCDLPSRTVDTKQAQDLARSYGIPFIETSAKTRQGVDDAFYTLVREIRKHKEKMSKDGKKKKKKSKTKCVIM
Assay: Protein-protein interaction inhibition between Kras and SOS1 (KrasGl2D-SOS PPI) using AlphaScreen
Assay type: binding
Details: AlphaScreen; biotin-tagged human Kras loaded with GDP, His-tagged human SOS1; read-out: KRAS G12D-SOS PPI IC50
How it was run: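 Kras was produced in E. coli, purified, then loaded with GDP. It was paired via streptavidin acceptor beads with His-SOS1 held on nickel donor beads, and proximity signal at 520-620 nm was read after 680 nm illumination.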

Structure (SMILES) | IC50
CC[C@H](C)[C@@H]1NC(=O)[C@H](CC(C)C)N(C)C(=O)C[C@@H](C)N(C)C(=O)[C@H](C2CC2)N(C)C(=O)C2(CCCC2)NC(=O)[C@@H]2CCCN2C(=O)[C@H](CCc2ccc(C(F)(F)F)c(Cl)c2)NC(=O)CN(C)C(=O)[C@H](CC2CCCCC2)N(C)C(=O)CN(C)C(=O)CN(C)C1=O [Compound 874] (cyclo([Ac5c][NMeGly(cPr)][NMedβ3hAla][NMeL]I[Sar][Sar][NMeCha][Sar][hPhe(3-Cl-4-CF3)]P)) | 25 nM
CCCC[C@@H]1NC(=O)[C@H](Cc2cccc(I)c2)NC(=O)CN(C)C(=O)[C@H](Cc2ccc(Cl)cc2)N(C)C(=O)CN(C)C(=O)CN(C)C(=O)[C@H]([C@@H](C)CC)NC(=O)[C@H](CC(C)C)N(C)C(=O)C[C@@H](C(=O)N2CCCCC2)N(C)C(=O)[C@H](CC(C)C)NC(=O)[C@H](Cc2ccc(C)cc2)N(C)C1=O [Compound 876] ([NMeL]I[Sar][Sar][NMePhe(4-Cl)][Sar][Phe(3-I)][Nle][NMePhe(4-Me)]L[NMeD]-Piperidide; lactam N-11) | 18 nM
CC[C@H](C)[C@@H]1NC(=O)[C@H](C)N(C)C(=O)C[C@@H](C(=O)N2CCCC2)NC(=O)[C@H](CC(C)C)N(C)C(=O)[C@H](CCc2ccccc2)N(C)C(=O)[C@H](CC(C)C)NC(=O)[C@H](CCc2ccc(C(F)(F)F)cc2)NC(=O)CN(C)C(=O)[C@H](Cc2ccc(Cl)cc2)N(C)C(=O)CN(C)C(=O)CN(C)C1=O [Compound 878] ([NMeA]I[Sar][Sar][NMePhe(4-Cl)][Sar][hPhe(4-CF3)]L[NMehPhe][NMeL]D-Pyrrolidide; lactam N-11) | 320 nM
CC[C@H](C)[C@@H]1NC(=O)[C@H](CC(C)C)N(C)C(=O)CCN(C)C(=O)[C@H](C(C)C)N(C)C(=O)C2(CCCC2)NC(=O)[C@@H]2CCCN2C(=O)[C@H](CCc2ccc(C(F)(F)F)c(F)c2)NC(=O)CN(C)C(=O)[C@H](CC2CCCCC2)N(C)C(=O)CN(C)C(=O)CN(C)C1=O [Compound 879] (cyclo([Ac5c][NMeV][NMeβAla][NMeL]I[Sar][Sar][NMeCha][Sar][hPhe(3-F,4-CF3)]P)) | 36 nM
CC[C@H](C)[C@@H]1NC(=O)[C@H](C)N(C)C(=O)C[C@@H](C(=O)N2CCCC2)NC(=O)[C@H](CC(C)C)N(C)C(=O)[C@H](Cc2ccccc2)N(C)C(=O)[C@H](CC(C)C)NC(=O)[C@H](Cc2cccc(I)c2)NC(=O)CN(C)C(=O)[C@H](Cc2ccc(Cl)cc2)N(C)C(=O)CN(C)C(=O)CN(C)C1=O [Compound 884] ([NMeA]I[Sar][Sar][NMePhe(4-Cl)][Sar][Phe(3-I)]L[NMeF][NMeL]D-Pyrrolidide; lactam N-11) | 63 nM
CC[C@H](C)[C@@H]1NC(=O)[C@H](CC(C)C)N(C)C(=O)C[C@@H](C)N(C)C(=O)[C@H](CC(C)C)NC(=O)C(C)(C)N(C)C(=O)[C@H](CC(C)C)NC(=O)[C@H](CCc2ccc(C(F)(F)F)c(Cl)c2)NC(=O)CN(C)C(=O)[C@H](CC2CCCCC2)N(C)C(=O)[C@@H]2CCN2C(=O)[C@H](C)N(C)C1=O [Compound 886] (cyclo([Aze][NMeCha][Sar][hPhe(3-Cl-4-CF3)]L[NMeAib]L[NMedβ3hAla][NMeL]I[NMeA])) | 100 nM
CC[C@H](C)[C@@H]1NC(=O)[C@H](C)N(C)C(=O)C[C@@H](C(=O)N2CCCC2)NC(=O)[C@H](CC(C)C)N(C)C(=O)[C@H](COCC(=O)NC(C)(C)C)N(C)C(=O)[C@H](CC(C)C)NC(=O)[C@H](CCc2ccc(C(F)(F)F)cc2)NC(=O)CN(C)C(=O)[C@H](Cc2ccc(Cl)cc2)N(C)C(=O)CN(C)C(=O)CN(C)C1=O [Compound 889] ([NMeA]I[Sar][Sar][NMePhe(4-Cl)][Sar][hPhe(4-CF3)]L[NMeS](CH2CONHtBu)[NMeL]D-Pyrrolidide; lactam N-11) | 70 nM
CC[C@H](C)[C@@H]1NC(=O)[C@H](CC(C)C)N(C)C(=O)C[C@@H](C)N(C)C(=O)[C@H]([C@@H](C)CC)N(C)C(=O)C2(CCC2)NC(=O)[C@@H]2CC(F)(F)CN2C(=O)[C@H](CCc2ccc(C(F)(F)F)c(Cl)c2)NC(=O)CN(C)C(=O)[C@H](CC2CCCCC2)N(C)C(=O)CN(C)C(=O)CN(C)C1=O [Compound 891] (cyclo([Ac4c][NMeI][NMedβ3hAla][NMeL]I[Sar][Sar][NMeCha][Sar][hPhe(3-Cl-4-CF3)][Pro(4,4-F2)])) | 9.6 nM
CC(C)C[C@H]1C(=O)N[C@@H](COCC(F)(F)F)C(=O)N(C)CC(=O)N(C)CC(=O)N(C)[C@@H](CC2CCCCC2)C(=O)N(C)CC(=O)N[C@@H](CCc2ccc(C(F)(F)F)c(Cl)c2)C(=O)N2CCC[C@H]2C(=O)NC2(CCCC2)C(=O)N(C)[C@@H](C2CCCCC2)C(=O)N(C)[C@H](C(=O)N2CCCCC2)CC(=O)N1C [Compound 894] ([NMeL]S(Trifluoroethyl)[Sar][Sar][NMeCha][Sar][hPhe(3-Cl-4-CF3)]P[Ac5c][NMeChg][NMeD]-Piperidide; lactam N-11) | 11 nM
CCCC[C@@H]1NC(=O)[C@H](CCc2ccc(C(F)(F)F)c(Cl)c2)NC(=O)CN(C)C(=O)[C@H](Cc2ccc(Cl)cc2)N(CC)C(=O)CN(C)C(=O)CN(C)C(=O)[C@H]([C@@H](C)CC)NC(=O)[C@H](CC(C)C)N(C)C(=O)C[C@@H](C(=O)N2CCCCC2)N(C)C(=O)[C@H](CC(C)C)NC(=O)C(C)(C)N(C)C1=O [Compound 895] ([NMeL]I[Sar][Sar][NEtPhe(4-Cl)][Sar][hPhe(3-Cl-4-CF3)][Nle][NMeAib]L[NMeD]-Piperidide; lactam N-11) | 8.4 nM
CC[C@H](C)[C@@H]1NC(=O)[C@H](C)N(C)C(=O)C[C@@H](C)NC(=O)[C@H](CC(C)C)N(C)C(=O)[C@H](CC(C)C)N(C)C(=O)[C@@H]2CCCN2C(=O)[C@H](CCc2ccc(C(F)(F)F)cc2)NC(=O)CN(C)C(=O)[C@H](Cc2ccc(Cl)cc2)N(C)C(=O)CN(C)C(=O)CN(C)C1=O [Compound 902] (cyclo(I[Sar][Sar][NMePhe(4-Cl)][Sar][hPhe(4-CF3)]P[NMeL][NMeL][d(β3hA)][NMeA])) | 140 nM
CC[C@H](C)[C@@H]1NC(=O)[C@H](CC(C)C)N(C)C(=O)C[C@@H](C)N(C)C(=O)[C@H](CC(C)C)NC(=O)C(C)(C)N(C)C(=O)[C@H](CC(C)C)NC(=O)[C@H](CCc2ccc(C(F)(F)F)c(F)c2)NC(=O)CN(C)C(=O)[C@H](CC2CCCCC2)N(C)C(=O)CN(C)C(=O)[C@@H]2CCN2C1=O [Compound 905] (cyclo([Aze][Sar][NMeCha][Sar][hPhe(3-F,4-CF3)]L[NMeAib]L[NMedβ3hAla][NMeL]I)) | 180 nM
CC[C@H](C)[C@@H]1NC(=O)[C@H](C)N(C)C(=O)C[C@@H](C(=O)N2CCCC2)N(C)C(=O)[C@H](C(C)C)N(C)C(=O)C2(CCC2)NC(=O)[C@H](Cc2ccccc2Cl)N(C)C(=O)[C@H](CCc2ccc(C(F)(F)F)c(Cl)c2)NC(=O)CN(C)C(=O)[C@H](CC2CCCCC2)N(C)C(=O)CN(C)C(=O)CN(C)C1=O [Compound 906] ([NMeA]I[Sar][Sar][NMeCha][Sar][hPhe(3-Cl-4-CF3)][NMePhe(2-Cl)][Ac4c][NMeV][NMeD]-Pyrrolidide; lactam N-11) | 2.7 nM
CC[C@H](C)[C@@H]1NC(=O)[C@H](CC(C)C)N(C)C(=O)C[C@@H](C(=O)N(C)C)N(C)C(=O)[C@H](C2CCCC2)N(C)C(=O)C2(CCCC2)NC(=O)[C@H](Cc2ccc(C)cc2)N(C)C(=O)[C@H](CCc2ccc(C(F)(F)F)c(Cl)c2)NC(=O)CN(C)C(=O)[C@H](CC2CCCCC2)N(C)C(=O)[C@@H]2CCN2C(=O)[C@H](C)N(C)C1=O [Compound 908] ([NMeL]I[NMeA][Aze][NMeCha][Sar][hPhe(3-Cl-4-CF3)][NMePhe(4-Me)][Ac5c][NMeGly(cPent)][NMeD]-NMe2; lactam N-11) | 39 nM
CC[C@H](C)[C@@H]1NC(=O)[C@H](C)N(C)C(=O)C[C@@H](C)NC(=O)[C@H](C(C)C)N(C)C(=O)[C@H](Cc2ccccc2)N(C)C(=O)[C@H](CC(C)C)N(C)C(=O)[C@H](CCc2ccc(C(F)(F)F)cc2)NC(=O)CN(C)C(=O)[C@H](Cc2ccc(Cl)cc2)N(C)C(=O)[C@@H]2CCN2C(=O)CN(C)C1=O [Compound 913] (cyclo([Aze][NMePhe(4-Cl)][Sar][hPhe(4-CF3)][NMeL][NMeF][NMeV][d(β3hA)][NMeA]I[Sar])) | 53 nM
CC[C@H](C)[C@@H]1NC(=O)[C@H](CC(C)C)N(C)C(=O)C[C@@H](C(=O)N(C)C)N(C)C(=O)[C@H]([C@@H](C)CC)N(C)C(=O)[C@H](C(C)C)NC(=O)[C@@H](C)NC(=O)[C@H](CCc2ccc(C(F)(F)F)c(Cl)c2)NC(=O)CN(C)C(=O)[C@H](Cc2ccc(C)cc2)N(C)C(=O)[C@@H]2CCN2C(=O)[C@H](C)N(C)C1=O [Compound 915] ([NMeL]I[NMeA][Aze][NMePhe(4-Me)][Sar][hPhe(3-Cl-4-CF3)][dA]V[NMeI][NMeD]-NMe2; lactam N-11) | 40 nM
CC[C@H](C)[C@@H]1NC(=O)[C@H](CC(C)C)N(C)C(=O)C[C@@H](C(=O)N2CCCCC2)N(C)C(=O)[C@H](C2CCCCC2)N(C)C(=O)[C@@H](C)NC(=O)[C@@H]2CCCN2C(=O)[C@H](CCc2ccc(C(F)(F)F)c(Cl)c2)NC(=O)CN(C)C(=O)[C@H](CC2CCCCC2)N(C)C(=O)CN(C)C(=O)CN(C)C1=O [Compound 917] ([NMeL]I[Sar][Sar][NMeCha][Sar][hPhe(3-Cl-4-CF3)]P[dA][NMeChg][NMeD]-Piperidide; lactam N-11) | 2 nM
CC[C@H](C)[C@@H]1NC(=O)[C@H](C)N(C)C(=O)C[C@@H](C)NC(=O)[C@H](C2CCCC2)N(C)C(=O)C2(CCCC2)NC(=O)[C@@H]2CCCN2C(=O)[C@H](CCc2ccc(C(F)(F)F)c(Cl)c2)NC(=O)[C@@H](C)N(C)C(=O)[C@H](Cc2cccnc2)N(C)C(=O)CN(C)C(=O)CN(C)C1=O [Compound 919] (cyclo([Ac5c][NMeGly(cPent)][d(β3hA)][NMeA]I[Sar][Sar][NMe3Pal][dNMeA][hPhe(3-Cl-4-CF3)]P)) | 52 nM
